# Experimental data: patent US4962109A, “Insecticidally and acaricidally active pyrimidine esters and intermediates therefor” (Imperial Chemical Industries PLC, priority 1985, dated 1990)
# Read-outs that look alike come from different tables or passages of the source.
# Legend:
# Type in all cases: in vivo
# [1] = tested on: Tetranychus urticae (spider mites - adult); assay: Contact test on spider mites - adult (TUa), French bean leaf, mortality; conditions: 72 h, read-out: TUa grading of mortality
# Outline: (§1)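 Graded read-out: A 80-100%, B 50-79%, C below 50% mortality or knockdown, assessed usually 1-3 days post-treatment. Liquid preparations at 500, 250 or 100 ppm by weight, from acetone solution diluted in water with 0.01% wetting agent, applied to pests and/or their host plant or food medium.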
# [2] = tested on: Tetranychus urticae (spider mites - ova); assay: Contact test on spider mites - ova (TUe), French bean leaf, mortality; conditions: 144 h, read-out: TUe grading of mortality
# Outline: as §1
# Myzus persicae (aphids) = assay: Contact test on aphids (MP), Chinese Cabbage leaf, mortality; conditions: 72 h, read-out: MP grading of mortality
# Outline: as §1
# [3] = tested on: Nephotettix cincticeps (green leaf hopper - nymphs); assay: Contact test on green leaf hopper nymphs (NC), Rice plant, mortality; conditions: read-out: NC grading of mortality
# Outline: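 Product dissolved in acetone, diluted in water with 0.01% wetting agent to 500, 250 or 100 ppm; nymphs and/or host rice plants treated. Mortality or knockdown assessed 1–3 days later, graded A (80-100%), B (50-79%), C (<50%).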
# [4] = tested on: Musca domestica (houseflies - adults); assay: Knockdown test on houseflies - adults (MD/KD), Cotton wool/sugar; conditions: 500 ppm, 4 hours, read-out: MD/KD grading of knockdown
# Outline: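 Adult houseflies exposed to the compound at 500, 250 or 100 ppm in acetone/water with 0.01% wetting agent, on a cotton wool/sugar medium. Knockdown and mortality assessed, graded A (80-100%), B (50-79%) or C (<50%).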
# [5] = tested on: Musca domestica (houseflies - adults); assay: Contact test on houseflies - adults (MD), Cotton wool/sugar, mortality; conditions: read-out: MD grading of mortality
# Outline: as §1
# [6] = tested on: Blattella germanica (cockroach nymphs); assay: Residual test on cockroach nymphs (BG/R), Plastic pot, mortality; conditions: 72 h, 3 days, read-out: BG/R grading of mortality
# Description: The activity of the Product was determined using a variety of insect pests. The Product was used in the form of liquid preparations containing 500, 250 or 100 parts per million (ppm) by weight of the Product. The preparations were made by dissolving the Product in acetone and diluting the solutions with water containing 0.01% by weight of a wetting agent sold under the trade name "LISSAPOL" NX until the liquid preparations contained the required concentration of the Product. "Lissapol" is a Registered Trade Mark.
# The test procedure adopted with regard to each pest was basically the same and comprised supporting a number of the pests on a medium which was usually a host plant or a foodstuff on which the pests feed, and treating either or both the pests and the medium with the preparations. The mortality of the pests was then assessed at periods usually varying from one to three days after the treatment.
# The results of the tests are given in Table III for each of the Products, at the rate in parts per million given in the second column as a grading of mortality designated as A, B or C wherein A indicates 80-100% mortality or knockdown, B indicates 50-79% mortality or knockdown and C indicates less than 50% mortality or knockdown.
# BG/R Blattella germanica
# [7] = tested on: Heliothis virescens (tobacco budworm - larvae); assay: Residual test on tobacco budworm larvae (HV), Cotton leaf, mortality; conditions: 48 h, read-out: HV grading of mortality
# Outline: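 Product in acetone diluted with water containing 0.01% Lissapol NX, at 500, 250 or 100 ppm; pests and/or host medium (here cotton leaf) treated. Mortality scored one to three days later, graded A (80-100%), B (50-79%), C (<50%).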
# [8] = tested on: Spodoptera exigua (lesser army worm - larvae); assay: Residual test on lesser army worm larvae (SP), Cotton leaf, mortality; conditions: 48 h, read-out: SP grading of mortality
# Outline: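 Product dissolved in acetone and diluted in water with 0.01% wetting agent to 500, 250 or 100 ppm; larvae and/or cotton leaf host treated. Mortality or knockdown scored one to three days later and graded A (80-100%), B (50-79%) or C (<50%).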
# [9] = tested on: Diabrotica balteata (rootworm larvae); assay: Residual test on rootworm larvae (DB), Filter paper/maize seed, mortality; conditions: 48 h, read-out: DB grading of mortality
# Outline: as §1
# [10] = tested on: Blattella germanica (cockroach nymphs); assay: Contact test on cockroach nymphs (BG/C), Plastic pot, mortality; conditions: 48 h, read-out: BG/C grading of mortality
# Outline: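 Cockroach nymphs and/or their medium were treated with aqueous preparations at 500, 250 or 100 ppm (acetone solution diluted in water with 0.01% Lissapol NX wetting agent). Mortality or knockdown was assessed typically 1–3 days later and graded A (80–100%), B (50–79%) or C (<50%).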
# [11] = 72 h, 500 ppm, contact, * test duration of 3 days
# [12] = 24 h, 500 ppm, contact, ** test duration of 1 day
# [13] = 500 ppm, residual, * test duration of 3 days
SMILES,"mortality at 500 ppm ([1]; 500 ppm, contact, 3 days) [%]","mortality at 500 ppm ([2]; 500 ppm, contact, 6 days) [%]","mortality at 500 ppm (Myzus persicae (aphids); 500 ppm, contact, 3 days) [%]","mortality at 500 ppm [3, 11] [%]",pest or weed control at 500 ppm [4] [%],"mortality at 500 ppm [5, 12] [%]",mortality at 500 ppm [6] [%],mortality at 500 ppm [7] [%],"mortality at 500 ppm [8, 13] [%]","mortality at 500 ppm [9, 13] [%]","mortality at 500 ppm ([3]; 48 h, 500 ppm, contact, 2 days) [%]","mortality at 500 ppm ([5]; 72 h, 500 ppm, contact, 3 days) [%]","mortality at 500 ppm ([8]; 500 ppm, residual, 2 days) [%]","mortality at 500 ppm ([9]; 500 ppm, residual, 2 days) [%]",other results
"Cc1c(F)c(F)c(COC(=O)C(c2cnc(C(C)(C)C)nc2)C(C)(C)C)c(F)c1F (racemic) [Compound 4, 2,3,5,6-tetrafluoro-4-methylbenzyl (RS)-2-[2-(1,1-dimethylethyl)pyrimidin-5-yl]-3,3-dimethylbutanoate]",80 to 100,< 50,80 to 100,80 to 100,80 to 100,80 to 100,50 to 79,80 to 100,80 to 100,80 to 100,,,,,
"C#CCc1c(F)c(F)c(COC(=O)C(c2cnc(C(C)(C)C)nc2)C(C)(C)C)c(F)c1F (racemic) [Compound 12, 2,3,5,6-tetrafluoro-4-(prop-2-yn-1-yl)benzyl (RS)-2-[2-(1,1-dimethylethyl)pyrimidin-5-yl]-3,3-dimethylbutanoate]",80 to 100,80 to 100,80 to 100,80 to 100,80 to 100,80 to 100,80 to 100,80 to 100,80 to 100,80 to 100,,,,,
"COCc1c(F)c(F)c(COC(=O)C(c2cnc(C(C)(C)C)nc2)C(C)(C)C)c(F)c1F (racemic) [Compound 15, 2,3,5,6-tetrafluoro-4-(methoxymethyl)benzyl (RS)-2-[2-(1,1-dimethylethyl)pyrimidin-5-yl]-3,3-dimethylbutanoate]",80 to 100,80 to 100,80 to 100,80 to 100,80 to 100,80 to 100,50 to 79,80 to 100,80 to 100,80 to 100,,,,,
"COCc1c(F)c(F)c(COC(=O)C(c2cnc(C(C)(C)C)nc2)C(C)(C)C)c(OC)c1F (racemic) [Compound 16, 2,3,5-trifluoro-6-methoxy-4-(methoxymethyl)benzyl (RS)-2-[2-(1,1-dimethylethyl)pyrimidin-5-yl]-3,3-dimethylbutanoate]",< 50,80 to 100,80 to 100,,80 to 100,80 to 100,50 to 79,80 to 100,80 to 100,< 50,,,,,
"CC(C)(C)c1ncc(C(C(=O)OCc2c(F)c(F)c(Cc3ccccc3)c(F)c2F)C(C)(C)C)cn1 (racemic) [Compound 17, 4-benzyl-2,3,5,6-tetrafluorobenzyl (RS)-2-[2-(1,1-dimethylethyl)pyrimidin-5-yl]-3,3-dimethylbutanoate]",50 to 79,< 50,< 50,,< 50,,< 50,< 50,,,< 50,< 50,< 50,80 to 100,
"C#CCc1c(F)c(F)c(COC(=O)C(c2cnc(C(F)(F)F)nc2)C(C)C)c(F)c1F (racemic) [Compound 87, 2,3,5,6-tetrafluoro-4-(prop-2-yn-1-yl)benzyl (RS)-2-(2-trifluoromethylpyrimidin-5-yl)-3-methylbutanoate]",80 to 100,80 to 100,80 to 100,50 to 79,80 to 100,80 to 100,80 to 100,50 to 79,80 to 100,80 to 100,,,,,
"C[C@@H](OC(=O)[C@@H](c1cnc(C(C)(C)C)nc1)C1CC1)c1cccc(Oc2ccccc2)n1 (racemic) [Compound 90, (RS)-1-(6-phenoxypyrid-2-yl)ethyl (RS)-2-[2-(1,1-dimethylethyl)pyrimidin-5-yl]-2-cyclopropylacetate]",80 to 100,< 50,80 to 100,80 to 100,80 to 100,80 to 100,80 to 100,80 to 100,80 to 100,80 to 100,,,,,
"COCc1c(F)c(F)c(COC(=O)C(c2cnc(C(C)(C)C)nc2)C(C)(C)C)c(F)c1OC (racemic) [Compound 217, 2,3,6-trifluoro-5-methoxy-4-(methmethyl)-benzyl (RS)-2-[2-(1,1-dimethylethyl)pyrimidin-5-yl]-3,3-dimethylbutanoate]",80 to 100,< 50,80 to 100,,80 to 100,,,80 to 100,,,80 to 100,80 to 100,80 to 100,< 50,"mortality at 500 ppm ([10]; 500 ppm, contact, 2 days): < 50%"
"CC[Si](CC)(CC)CCCc1c(F)c(F)c(COC(=O)C(c2cnc(C(C)(C)C)nc2)C(C)(C)C)c(F)c1F (racemic) [Compound 218, 4-[3-(triethylsilyl)prop-1-yl]-2,3,5,6-tetrafluorobenzyl (RS)-2-[2-(1,1-dimethylethyl)pyrimidin-5-yl]-3,3-dimethylbutanoate]",,,,,< 50,,,< 50,,,,,,,mortality at 500 ppm [1]: 80 to 100%; mortality at 500 ppm [2]: < 50%; mortality at 500 ppm (Myzus persicae (aphids)): 80 to 100%; mortality at 500 ppm ([3]; 48 h): 80 to 100%; mortality at 500 ppm ([5]; 72 h): < 50%; mortality at 500 ppm [10]: < 50%; mortality at 500 ppm [8]: < 50%; mortality at 500 ppm [9]: < 50%
C#CCSCc1c(F)c(F)c(COC(=O)C(c2cnc(C(C)(C)C)nc2)C(C)(C)C)c(F)c1F (racemic) [Compound 220],80 to 100,< 50,80 to 100,,80 to 100,,,< 50,,,80 to 100,80 to 100,50 to 79,50 to 79,"mortality at 500 ppm ([10]; 500 ppm, contact, 2 days): < 50%"
